Laboratory results taken from PubChem BioAssay (NCI).
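In this assay, cells in 96-well plates receive the compound at five concentrations for 48 hours. Endpoints are linearly interpolated between the surrounding concentrations. Here, GI50 denotes the concentration required for 50% inhibition of growth. TGI: total growth inhibition.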

Experiments:
Assay in all cases: DTP human tumour cell line panel, 48 h
[1] = system: COLO 205 colon
[2] = system: DU-145 prostate
[3] = system: HCC-2998 colon
[4] = system: HL-60(TB) leukemia
[5] = system: HOP-92 NSCLC
[6] = system: K-562 leukemia
[7] = system: NCI-H460 lung
[8] = system: SK-MEL-2 melanoma
[9] = system: SW-620 colon
[10] = system: UACC-257 melanoma

SMILES	GI50 [1] [µM]	TGI [1] [µM]	GI50 [2] [µM]	TGI [2] [µM]	GI50 [3] [µM]	TGI [3] [µM]	GI50 [4] [µM]	TGI [4] [µM]	GI50 [5] [µM]	TGI [5] [µM]	GI50 [6] [µM]	TGI [6] [µM]	GI50 [7] [µM]	TGI [7] [µM]	GI50 [8] [µM]	TGI [8] [µM]	GI50 [9] [µM]	TGI [9] [µM]	GI50 [10] [µM]	TGI [10] [µM]
O=C(NNS(=O)(=O)c1cc(C(F)(F)F)cc(C(F)(F)F)c1)c1cnn(-c2ccc(Cl)cc2)c1C(F)(F)F	17.4	34.8	18.6	44.1	16.4	31	20.7	45.6	14.8	31.8	23.1	65.7	17.2	37.2	18.5	34.7	17.7	38.7	15.2	43.7
O=C(/C=C/c1cccc(Cl)c1)c1ccc(Cl)cc1Cl	12.2	40.6	9.59	23	1.14	2.52	25.3	> 50	6.17	16.2	2.86	> 50	13.2	> 50	11.8	33	2.36	38.7		
C=C(C)C1/C=C(/C(C)C)CC[C@]2(C)O[C@@H]2CC[C@H](C)CC1=O (some centres undefined)	54.5	> 100	49.6	> 100	99.9	> 100			99.5	> 100	33	> 100	50.3	> 100	> 100	> 100				
COC(=O)C1(Cc2cccc(Cl)c2)CCCCCCN1C(=O)c1ccccc1 (centres undefined)		38.7		37.7		27.5		34.3		35.6		59.8		33.8				36		
O=Nc1c(O)ccc2ccccc12	7.81	21.8	3.5	10.5	13.4	27.9	2.42	6.04			3.49	16.8	14.2	35.7	2.12	4.36	2.46	8.04	1.64	3.2
COC(=O)CCC1=C(C)c2cc3[n-]c(cc4nc(cc5[n-]c(cc1n2)c(CCC(=O)OC)c5C)C=C4C)cc3C.[Cd+2]	2.64	6.9	4.5	10.4	22.2	> 68.1			16.7	40	3.32	> 30.8	0.868	3.2	5.37	19.1	4.44	18.4	4.06	18.3
COc1ccc([C@H]2O[C@@H](CO)C[C@]2(O)c2ccc(OC)cc2)cc1	> 100	> 100	> 100	> 100	> 100	> 100	39.3	> 100	95.6	> 100	> 100	> 100	> 100	> 100			> 100	> 100	> 100	> 100
